The record followed here is ChEMBL document CHEMBL1944601, “N-(4-Substituted-benzoyl)-N'-(β-d-glucopyranosyl)ureas as inhibitors of glycogen phosphorylase: Synthesis and evaluation by kinetic, crystallographic, and molecular modelling methods” (Bioorg Med Chem, 2012).

Usually Ki stands for the dissociation constant of the complex between target and ligand, obtained from inhibition or displacement. The low end stands for higher affinity, the high end for lower affinity.

The structures appear in SMILES notation.

The target in the first assay is T1, Glycogen phosphorylase, muscle form (Oryctolagus cuniculus, UniProt P00489).
T1 sequence (P00489 whole entry): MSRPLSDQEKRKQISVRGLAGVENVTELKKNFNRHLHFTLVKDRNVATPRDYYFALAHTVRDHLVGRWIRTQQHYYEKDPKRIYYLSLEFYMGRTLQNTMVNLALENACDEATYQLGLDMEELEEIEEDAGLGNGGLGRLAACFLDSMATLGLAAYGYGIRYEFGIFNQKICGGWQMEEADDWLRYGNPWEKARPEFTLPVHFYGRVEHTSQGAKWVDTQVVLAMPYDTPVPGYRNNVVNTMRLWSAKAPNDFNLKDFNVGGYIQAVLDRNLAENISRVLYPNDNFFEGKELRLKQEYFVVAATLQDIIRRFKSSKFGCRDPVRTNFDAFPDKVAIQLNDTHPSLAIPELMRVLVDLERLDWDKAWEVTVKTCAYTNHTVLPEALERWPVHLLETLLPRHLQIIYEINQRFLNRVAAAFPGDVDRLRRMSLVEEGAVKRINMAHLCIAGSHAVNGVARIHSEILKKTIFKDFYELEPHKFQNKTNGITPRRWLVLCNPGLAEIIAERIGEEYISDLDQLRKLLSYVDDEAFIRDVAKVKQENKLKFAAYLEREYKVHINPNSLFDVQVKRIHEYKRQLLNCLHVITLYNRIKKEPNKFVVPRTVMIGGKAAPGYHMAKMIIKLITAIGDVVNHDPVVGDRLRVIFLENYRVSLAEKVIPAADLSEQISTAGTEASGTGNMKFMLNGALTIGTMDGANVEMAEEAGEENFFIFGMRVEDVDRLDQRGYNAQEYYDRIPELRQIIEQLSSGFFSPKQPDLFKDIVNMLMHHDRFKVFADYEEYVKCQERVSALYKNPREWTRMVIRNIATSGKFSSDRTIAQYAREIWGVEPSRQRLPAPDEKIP
Description: (§1) Inhibition of rabbit muscle glycogen phosphorylase b assessed as inorganic phosphate release at pH 6.8
Molecule `COc1ccc(C(=O)NC(=O)N[C@@H]2O[C@H](CO)[C@@H](O)[C@H](O)[C@H]2O)cc1` had an inhibition constant Ki of 3.2 µM. In other words, the single-digit micromolar range.

In turn, `COC(=O)N[C@@H]1O[C@H](CO)[C@@H](O)[C@H](O)[C@H]1O` had a Ki of 210 µM.

`CC(=O)NC(=O)N[C@@H]1O[C@H](CO)[C@@H](O)[C@H](O)[C@H]1O` came in with a Ki of 370 µM.

The molecule `O=C(O)CCC(=O)N[C@@H]1O[C@H](CO)[C@@H](O)[C@H](O)[C@H]1O` came in with a Ki of 20 µM.

`O=C(NC(=O)c1ccc(C(=O)O)cc1)N[C@@H]1O[C@H](CO)[C@@H](O)[C@H](O)[C@H]1O` came in with a Ki of 85 µM. Against the preceding molecule, the Ki is about 4.2-fold higher.

As for `[N-]=[N+]=NCC(=O)N[C@@H]1O[C@H](CO)[C@@H](O)[C@H](O)[C@H]1O`, the affinity corresponds to a Ki of 49 µM.

`NC(=O)NC1O[C@H](CO)[C@@H](O)[C@H](O)[C@H]1O` (single isomer, unassigned) gave a Ki of 140 µM.

As for `COC(=O)c1ccc(C(=O)NC(=O)N[C@@H]2O[C@H](CO)[C@@H](O)[C@H](O)[C@H]2O)cc1`, the inhibition constant (Ki) stood at 4 µM.

`O=C(N[C@@H]1O[C@H](CO)[C@@H](O)[C@H](O)[C@H]1O)C(F)(F)F` gave a Ki of 75 µM.

In turn, `O=C(NC(=O)c1ccc(Cl)cc1)N[C@@H]1O[C@H](CO)[C@@H](O)[C@H](O)[C@H]1O` gave a Ki of 4.4 µM.

Regarding `O=C(NC(=O)c1ccc(C(=O)OCc2ccccc2)cc1)N[C@@H]1O[C@H](CO)[C@@H](O)[C@H](O)[C@H]1O`, the affinity corresponds to a Ki of 150 µM.

As to `O=C(NC(=O)c1ccc(-c2ccccc2)cc1)N[C@@H]1O[C@H](CO)[C@@H](O)[C@H](O)[C@H]1O`, the Ki is 3.7 µM.

The next assay concerns the target T1, Glycogen phosphorylase, muscle form. The source holds these as a separate data set.
Description: as §1
`O=C(N[C@H]1O[C@H](CO)[C@@H](O)[C@H](O)[C@H]1O)C(F)(F)F`: the Ki result is on record as “Not Active”.
